In patent US20100255020A1, “METHOD FOR INDUCING CYTOTOXIC T-CELLS, CYTOTOXIC T-CELL INDUCERS, AND PHARMACEUTICAL COMPOSITIONS AND VACCINES EMPLOYING THEM” (NEC CORPORATION, priority 2007, published 2010):
Where no end group is shown, it is not given here.

Columns and labels:
[1] = tested on: HLA-A*2402 positive cell lines that express WT1 naturally (KAZZ, KCL22, KH88, MEG01); experiment: Reactivity of WT1 peptide-specific cell lines toward tumor cells (IFN-γ ELISPOT); assay type: cell-based, human; details: cell lines established from HLA-A*2402 positive patients, FIG. 5
Text: Reactions of cell lines established from different patients are arranged in a bar graph.

[2] = tested on: prostate-specific antigen (PSA); experiment: Prostate tumor marker PSA during W10 peptide immunotherapy; assay type: in vivo, human
Method: After the gradual increase the dose was fixed to 3 mg of W10 peptide+Wc and immunotherapy was continued. […] The day when 1 mg of W10 peptide on its own was first administered was presented as day 0. Arrows with dotted line indicates the period when 3 mg of W10 without Wc was injected for safety test (W10). The period where Wc was further added to W10 is also indicated with arrows with solid line (W10+Wc). […] Therefore, osteolytic lesions were measured as the size of tumors. […] Around May 2008, PSA gradually started to increase again, and pain started in the right femur. From the end of July 2008, a taxotere+Predonin therapy was started. W10+Wc immunotherapy was continued along with chemotherapy.
Immunotherapy was started with 3 mg W10 peptide while monitoring safety, then dose escalation was put forward with W10 peptide 1 mg+Wc, followed by 3 mg of W10 peptide+Wc. Eventually, the dose was fixed at this level and weekly immunization was continued. […] The day the immunization was started with 3 mg of W10 without Wc was set as day 0. […] For about half a year, PSA was stable at less than 0.1 (FIG. 14 a). […] When the immunotherapy was resumed, PSA decreased. After this incident, PSA started to show gradual increase. […] The size of a pubic bone metastatic tumor has been maintained within SD for 37 weeks on the RECIST standard so far (FIG. 14 b). […]

[3] = tested on: IFN-γ-producing cells in peripheral blood mononuclear cells; experiment: ELISPOT of patients' PBMCs before and after W10 peptide immunization; assay type: cell-based, human
Method: In order to compare the cytotoxicity of peripheral blood mononuclear cells between that before administration of 5×10̂8 cells of whole-cell pertussis vaccine and 3 mg of W10 peptide to that after administering it three times, peripheral blood mononuclear cells were cultured with the immunizing peptide under conditions described later, and the number of cells that produced IFN-γ in a peptide-dependent manner were counted. The cells used for the ELISPOT assay are also described later.
The results are shown in FIG. 6 (response of PBMC of patients having HLA-A*2402), FIG. 7 (response of patients having HLA-A*0201), and FIG. 8 (response of patients having HLA-A*0206). The abscissa denotes the peptide that was bound to antigen presenting cells (in the figures, referred to as APCs (antigen presenting cells)), and the ordinate denotes the number of INF-γ-producing cells per 1×10̂4 cells. The response of peripheral blood mononuclear cells one week after three-time immunizations is shown with closed bars, and the response of peripheral blood mononuclear cells collected immediately before immunization is shown with open bars. […]
Peripheral blood mononuclear cells (PBMC) were stimulated in vitro once a week for a total of three times and then, the number of cells that produced IFN-γ in response to the antigen peptide were counted. […]

ALLPAVPSL [W10]
Reactivity of peptide-dependent cell line toward WT1-expressing cell lines compared with C1R-A24 [1]: tends to be higher although differences are small | PSA ([2]; patient KB07-003, prostate cancer, stable for about half a year): less than 0.1 | PSA after starting immunotherapy ([2]; patient KB07-005, prostate cancer): around 0.04 | Number of W10-reactive IFN-γ-producing T-cells ([3]; patient KB07-006, after 1 mg W10 peptide for 3 weeks): increased | Increase of cells producing IFN-γ in response to W10 peptide after immunization ([3]; patients with HLA-A*2402, HLA-A*0201 or HLA-A*0206, 3 mg W10 + Wc x3): often observed
